Literature values in US6436936B1, “Methods and compositions for treating disorders, using optically pure (+) zopiclone” (Sepracor Inc., priority 1991, dated 2002).

Tested on: mice
Details: reference agents, 3 per group, ten parameters scored, total score <40 of 60 denotes behavioral depression

Row | Structure (SMILES) | ED100 [mg/kg]
1 | CCC1(c2ccccc2)CCC(=O)NC1=O (stereo not drawn) [glutethimide] | 300
2 | CCCC(C)C1(CC)C(=O)NC(=O)NC1=O (stereo not drawn) [pentobarbital] | 100
3 | O=C(CCCN1CCC(O)(c2ccc(Cl)cc2)CC1)c1ccc(F)cc1 [haloperidol] | 10
4 | CCCC(C)(COC(N)=O)COC(N)=O [meprobamate] | 300
5 | CN1C(=O)CN=C(c2ccccc2)c2cc(Cl)ccc21 [diazepam] | 50
6 | COC(=O)[C@H]1[C@H]2C[C@@H]3c4[nH]c5cc(OC)ccc5c4CCN3C[C@H]2C[C@@H](OC(=O)c2cc(OC)c(OC)c(OC)c2)[C@@H]1OC [reserpine] | 50
